In patent US7825263B2, “Nitrooxyderivatives of carvedilol and other beta blockers as antihypertensive” (Nicox S.A., priority 2003, dated 2010):

System: PC12 cells
Test: Measurements of cGMP in rat PC12 cell line (cGMP accumulation, enzyme immunoassay)
Format: cell-based
Conditions: for EC50: PC-12, 0.75 h
Experimental: Measurements of cGMP in Rat PC12 Cell Line
cGMP contributes to the function and interaction of several vascular cell types and its dysfunction is involved in major cardiovascular diseases such as hypertension, diabetic complications, atherosclerosis, and tissue infarction. Therefore the extent of cGMP formation elicited by the compounds of the inventions was evaluated in the rat pheochromocytoma (PC12) cell line.
Cells were maintained at 37° C. in DMEM medium enriched with 10% horse serum and 5% foetal bovine serum under 5% CO2 atmosphere. At the time of experiments the cells were washed once with Hank's Balanced Salt Solution (HBSS) supplemented with 0.05% ascorbic acid and preincubated in the same buffer for 10 min in a floating water bath. After the preincubation step, cells were exposed for additional 45 min to either control conditions or increasing concentrations of test compounds ranging from 0.1 to 25 μM, in the presence of the phosphodiesterase inhibitor, IBMX (100 μM) and the NO-independent activator of soluble guanylyl cyclase, YC-1 (20 μM). The reaction was terminated by the removal of the incubating buffer and consecutive addition of 100 μl of absolute ethanol. The organic extracts were then evaporated to dryness and the residues dissolved in aqueous buffer for quantitative determination of intracellular cGMP levels using the cGMP enzyme immunoassay kit.
The obtained results reported in Table 1 are expressed as EC50 (μM) and efficacy Emax (% of vehicle). As shown in the table the nitroderivatives of carvedilol induced a consistent increase of intracellular cGMP formation in PC12 cell line. Conversely, this effect was not induced by the parent compound.

[1] = 45 min exposure, 0.1 to 25 μM test compound, in presence of IBMX (100 μM) and YC-1 (20 μM)

**Q.** Which “EC50, cGMP accumulation in PC12 cells” value [1] does the source give for COc1ccccc1OCCNCC(O)COc1cccc2[nH]c3ccccc3c12 (centres unmarked) [Carvedilol] here?
**A.** The value was “Not effective”.

**Q.** What about the “Emax (% of vehicle), cGMP accumulation in PC12 cells” value (from here on “Emax (% of vehicle)”) [1] of the same molecule?
**A.** Its value is “Not effective”.

**Q.** And the “increase of intracellular cGMP formation in PC12 cell line (in words)” value (summary statement on Table 1)?
**A.** The value was “not induced”.

**Q.** With COc1ccccc1OCCNCC(COc1cccc2[nH]c3ccccc3c12)OC(=O)c1ccc(CO[N+](=O)[O-])cc1 (centres unmarked) [Compound of example 1, 4-(Nitrooxymethyl)benzoic acid 1-(9H-carbazol-4-yloxy)-3-[[2-(2-methoxyphenoxy)ethyl]amino]-2-propanoate] as the molecule, how does the “Emax (% of vehicle)” value [1] read?
**A.** Its value is 480 % of vehicle.

**Q.** What about the EC50 [1] of the same molecule?
**A.** Its EC50 is 2300 nM.

**Q.** How did the “Emax (% of vehicle)” value [1] turn out when COc1ccccc1OCCN(CC(O)COc1cccc2[nH]c3ccccc3c12)C(=O)c1ccc(CO[N+](=O)[O-])cc1 (centres unmarked) [Compound of example 3, 1-(9H-carbazol-4-yloxy)-3-[[2-(2-methoxyphenoxy)ethyl][(4-nitrooxymethyl)benzoyl]amino]-2-propanol] was run?
**A.** Its value is 565 % of vehicle.

**Q.** What about the EC50 [1] of the same molecule?
**A.** The EC50 was 1800 nM.

**Q.** What does the source list for COc1ccccc1OCCN(CC(O)COc1cccc2[nH]c3ccccc3c12)C(=O)CCO[N+](=O)[O-] (centres unmarked) [Compound of example 4]?
**A.** Emax (% of vehicle), cGMP accumulation in PC12 cells [1]: 395 % of vehicle; EC50 [1]: 1700 nM

**Q.** COc1ccccc1OCCN(CC(O)COc1cccc2[nH]c3ccccc3c12)C(=O)CCCCCO[N+](=O)[O-] (centres unmarked) [Compound of example 5] was tested. Which “Emax (% of vehicle)” value [1] did it give?
**A.** Its value is 322 % of vehicle.

**Q.** What about the EC50 [1] of the same molecule?
**A.** Its EC50 is 600 nM.
